Source: patent US20150087619A1, “METHOD OF MITIGATING VIRUS ASSOCIATED END-ORGAN DAMAGE” (CHIMERIX, INC., priority 2012, published 2015)
Entries after “also recorded” stand apart in the source; their conditions may differ.

Tests used:
[1] = tested on: HHV-6(B); assay: In vitro antiviral activity in cell culture; format: cell-based
[2] = tested on: HSV-1; assay: In vitro antiviral activity in cell culture; format: cell-based; settings: Human alphaherpesvirus 1; HSV-1, cell culture
[3] = tested on: BKV; assay: Study HDP-CDV-201: BK viruria and viremia in post-HCT subjects; format: in vivo, human
Protocol: A HDP-CDV-201, a 9-11 week randomized, placebo-controlled, double-blind, dose-escalation clinical study (40 mg weekly [QW], 100 mg QW, 200 mg QW, 200 mg twice-weekly [BIW], and 100 mg BIW) of HDP-CDV for the prevention of BKV infection post-HCT was performed. Treatment was initiated at the time of engraftment and continued until Week 13 post-HCT.
A multicenter, randomized, double-blind, placebo-controlled, dose-escalation study of safety, tolerability, and ability of HDP-CDV to prevent or control AdV, BKV, and EBV infection and associated disorders was conducted. During enrollment of patients in the study, urine samples of candidate patients were routinely screened for BKV. Plasma was collected from patients who tested positive for BKV viruria in urine, and AdV, EBV and BKV level in the plasma was evaluated.
Subjects were tabulated according to treatment group (pooled HDP-CDV versus placebo) and BKV status (viruria positive or negative any time during treatment). Pairwise comparisons were performed using a Fisher's exact test. Data were pooled for HDP-CDV versus placebo groups due to the limited sample size. […] Data from the largest study cohort (HDP-CDV 100 mg BIW) are presented separately in some of the analyses as this dose as been selected for further development of HDP-CDV in Phase 3 trials.

[4] = clinical; settings: male, human, plasma, 40 mg
[5] = tested on: HSV; assay: HDP-CDV given to patients with viral infections, virology data; settings: patient 2 mo, 4.63 kg, neonatal HSV encephalitis; 4 mg/kg BIW; to below the limit of detection
[6] = Phase 1 comparative bioavailability (solution vs tablet) and food effect study; settings: for Plasma HDP-CDV CL/F / Plasma HDP-CDV Tmax / Plasma HDP-CDV AUC0-inf / Plasma HDP-CDV AUC0-last / Plasma HDP-CDV Cmax / Plasma HDP-CDV t1/2: single oral dose; for Plasma HDP-CDV CL/F / Plasma HDP-CDV Tmax / Plasma HDP-CDV AUC0-inf / Plasma HDP-CDV AUC0-last / Plasma HDP-CDV Cmax / Plasma HDP-CDV t1/2 / Plasma Cidofovir CL/F: healthy volunteers; for Plasma HDP-CDV CL/F / Plasma HDP-CDV AUC0-inf / Plasma HDP-CDV AUC0-last / Plasma HDP-CDV Cmax / Plasma HDP-CDV t1/2 / Plasma Cidofovir CL/F: mean; for Plasma HDP-CDV Tmax: median;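 for all read-outs here: plasma levels quantified by validated LC-MS/MS, LLOQ 0.1 ng/mL for HDP-CDV and 0.5 ng/mL for CDV, crossover design with 14-day washout between single doses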
[7] = 40 mg tablet, fed (high fat breakfast)

SMILES: CCCCCCCCCCCCCCCCOCCCOP(=O)(O)COC(CO)Cn1ccc(N)nc1=O (stereo not drawn) [HDP-CDV]
- EC50 [1]: 7 nM
- EC50 [2]: 60 nM
- antiviral effect ([3]; 40 mg QW dose): has not been shown to have antiviral activity; also recorded: no antiviral effect
- BKV viral load and risk or incidence of end organ damage ([3]; BKU+ patients, FIG. 3): effective in reducing BKV viral load and the risk or incidence of end organ damage
- >10,000 confirmed, new onset (viremia) ([3]; Cohort 4A 100 mg BIW): 0
- Viruria >1.0E+10 but only at posttreatment week ([3]; Cohort 4A 100 mg BIW (1/22)): (4.5%)
- Viremia sustained, but no viremia at baseline ([3]; Cohort 4A 100 mg BIW (3/22)): (13.6%)
- Viremia >1000 copies/mL confirmed ([3]; Cohort 4A 100 mg BIW (4/22)): (18.2%)
- Viremia sustained (at least 2 consecutive values positive) ([3]; Cohort 4A 100 mg BIW (5/22)): (22.7%)
- Viremia at any time during treatment ([3]; Cohort 4A 100 mg BIW (6/22)): (27.3%)
- Viruria >1.0E+10 at any time during treatment ([3]; Cohort 4A 100 mg BIW, BKV positive urine at baseline (4/22)): (18.2%)
- BK viremia ([3]; Cohort 4a (100 mg BIW), 5/22): 23%
- Viruria >1.0E+10 but only at posttreatment week ([3]; Pooled HDP-CDV cohorts (4/77)): (5.2%)
- >10,000 confirmed, new onset (viremia) ([3]; Pooled HDP-CDV cohorts (5/77)): (6.5%)
- Viremia sustained, but no viremia at baseline ([3]; Pooled HDP-CDV cohorts (23/77)): (29.9%)
- Viremia >1000 copies/mL confirmed ([3]; Pooled HDP-CDV cohorts (31/77)): (26%)
- Viremia sustained (at least 2 consecutive values positive) ([3]; Pooled HDP-CDV cohorts (32/77)): (41.6%)
- Viremia at any time during treatment ([3]; Pooled HDP-CDV cohorts (40/77)): (47%)
- Viruria >1.0E+10 at any time during treatment ([3]; Pooled HDP-CDV cohorts, BKV positive urine at baseline (26/77)): (33.8%)
- subjects who developed viremia >10,000 copies/mL ([3]; cohort 1 (40 mg QW)): 1
- BK viremia ([3]; cohort 1 (40 mg QW), 5/8): 62%
- subjects who developed viremia >10,000 copies/mL ([3]; cohort 2 (100 mg QW)): 1
- subjects who developed viremia >10,000 copies/mL ([3]; cohort 3 (200 mg QW)): 3
- subjects who developed viremia >10,000 copies/mL ([3]; cohort 4 (200 mg BIW)): 3
- subjects who developed viremia >10,000 copies/mL ([3]; cohort 4a (100 mg BIW)): 0
- subjects with high levels of BK viruria ([3]; negative for BK viruria at baseline, Cohort 1 (40 mg QW)): 0 subject
- subjects with high levels of BK viruria ([3]; negative for BK viruria at baseline, Cohort 2 (100 mg QW)): 1 subject
- subjects with high levels of BK viruria ([3]; negative for BK viruria at baseline, Cohort 3 (200 mg QW)): 2 subject
- subjects with high levels of BK viruria ([3]; negative for BK viruria at baseline, Cohort 4 (200 mg BIW)): 0 subject
- subjects with high levels of BK viruria ([3]; negative for BK viruria at baseline, Cohort 4a (100 mg BIW)): 0 subject
- subjects with viremia ([3]; negative for BK viruria at baseline, pooled HDP-CDV): one
- viral load (maximum BKV viruria) ([3]; patients (67%) who did not develop end organ disease, FIG. 3): 2.0×10^8
- viral load (maximum BKV viruria) ([3]; patients who developed end organ disease after treatment (33%), FIG. 3): 3.2×10^8
- viral load compared to patients who received placebo ([3]; patients who developed end organ disease after treatment, FIG. 3): significantly lower viral load
- sustained BK viruria (at least 4 weeks with BK positive urine measurements) ([3]; subjects negative for BK viruria at baseline (9/73), placebo 21%): 12%
- confirmed new onset BK viruria during treatment ([3]; subjects negative for BK viruria at baseline (10/73), placebo 25%): 14%
- measurable BK viruria on at least one occasion ([3]; subjects negative for BK viruria at baseline (16/73), placebo 29%): 22%
- AUC(0-inf) ([4]; oral): 476 ng·h/mL
- AUC(0-t) ([4]; oral): 457 ng·h/mL
- Cmax ([4]; oral): 70.5 ng/mL
- AUC(0-inf) ([4]; po): 574 ng·h/mL
- AUC(0-t) ([4]; po): 549 ng·h/mL
- Cmax ([4]; po): 77.7 ng/mL
- Vd/F ([4]; po): 831 L
- half-life ([4]; po): 8.06 h
- HSV in the CSF decrease [5]: > 1.8 log10 copies/mL to below the limit of
- Plasma HDP-CDV CL/F ([6]; 40 mg solution, fasted): 77.5 L/h
- Plasma HDP-CDV Tmax ([6]; 40 mg solution, fasted): 2.00 h
- Plasma HDP-CDV AUC0-inf ([6]; 40 mg tablet, fasted): 496 ng·h/mL
- Plasma HDP-CDV AUC0-last ([6]; 40 mg tablet, fasted): 473 ng·h/mL
- Plasma HDP-CDV CL/F ([6]; 40 mg tablet, fasted): 86.1 L/h
- Plasma HDP-CDV Cmax ([6]; 40 mg tablet, fasted): 73.9 ng/mL
- Plasma HDP-CDV t1/2 ([6]; 40 mg tablet, fasted): 7.52 h
- Plasma HDP-CDV Tmax ([6]; 40 mg tablet, fasted): 3.00 h
- Plasma HDP-CDV AUC0-inf [6, 7]: 367 ng·h/mL
- Plasma HDP-CDV AUC0-last [6, 7]: 340 ng·h/mL
- Plasma HDP-CDV CL/F [6, 7]: 119 L/h
- Plasma HDP-CDV Cmax [6, 7]: 39.4 ng/mL
- Plasma HDP-CDV t1/2 [6, 7]: 6.65 h
- Plasma HDP-CDV Tmax [6, 7]: 6.00 h
- food effect on HDP-CDV absorption and bioavailability ([6]; 40 mg tablet, high fat meal vs fasted): reduced peak concentration and delayed Tmax; also recorded: significant food effect
- Plasma Cidofovir CL/F ([6]; after 40 mg HDP-CDV solution, fasted): 40.8 L/h
- Plasma Cidofovir CL/F ([6]; after 40 mg HDP-CDV tablet, fasted): 44.3 L/h
- Plasma Cidofovir CL/F ([6]; after 40 mg HDP-CDV tablet, fed): 46.9 L/h
- food effect on CDV concentrations ([6]; after 40 mg HDP-CDV tablet, high fat meal vs fasted): unaffected by the presence of food; also recorded: no food effect
- HDP-CDV Ln(AUCinf) Test Geometric LSM ([6]; fed tablet (test), TOST): 343.5310 ng·h/mL
- HDP-CDV Ln(AUClast) Test Geometric LSM ([6]; fed tablet (test), TOST): 323.8453 ng·h/mL
- HDP-CDV Ln(Cmax) Test Geometric LSM ([6]; fed tablet (test), TOST): 37.0360 ng/mL
- HDP-CDV Ln(AUCinf) Ratio [% Ref] ([6]; in vivo): 72.17 % Ref
- HDP-CDV Ln(AUClast) Ratio [% Ref] ([6]; in vivo): 70.89 % Ref
- HDP-CDV Ln(Cmax) Ratio [% Ref] ([6]; in vivo): 52.56 % Ref
- absorption following a single oral administration ([6]; solution and tablet formulation, 40 mg): readily absorbed
